Measurements from patent US20020061888A1, “Combination therapy for the prophylaxis and treatment of hyperlipidemic conditions and disorders” (priority 2000, published 2002).

Test: Water uptake experiments (Dynamic Vapor Sorption, water sorption/desorption isotherms at 25° C.)
Type: physicochemical
Experimental: A dry sample of the crystalline form having a melting point or a decomposition point of about 278° C. to about 285° C. (i.e., Form II) typically gains less than about 1% of its own weight when equilibrated under 80% relative humidity (RH) air at 25° C. […] For the present purposes, the term “essentially 0% RH” means less than about 1% RH. The term “equilibrated” means that the change in weight of a sample over time at a given relative humidity is less than 0.0003% ((dm/dt)/m0 ×100, where m is mass in mg, m0 is initial mass, and t is time in minutes).
Water sorption experiments are performed on a Dynamic Vapor Sorption (DVS) apparatus (DVS-1000 manufactured by Surface Measurements Systems, Inc.). Experiments are performed at 25° C. by initially drying the material of interest (about 10 mg sample) from 30% relative humidity (RH) ([…] RH step) by purging with dry nitrogen until no further weight change was observed. The samples are then exposed to a stepwise (10% RH steps) increase in RH from about 0 to about 90% RH. Each successive step is initiated when the change in weight over time at the relative humidity was less than 0.0003% ((dm/dt)/m0×100, where m is mass in mg, m0 is initial mass, and t is time in minutes). The sample is then taken through the reverse of the stepwise % RH increase. The data are collected on a computer and analyzed using SMS' proprietary MS-Excel macro interface software.

## CCCCC1(CCCC)CS(=O)(=O)c2ccc(N(C)C)cc2[C@@H](c2ccc(OCc3ccc(C[N+]45CCN(CC4)CC5)cc3)cc2)[C@H]1O [Form I, (4R,5R)-1-((4-(4-(3,3-dibutyl-7-(dimethylamino)-2,3,4,5-tetrahydro-4-hydroxy-1,1-dioxido-1-benzithiepin-5-yl)phenoxy)methyl)phenyl)methyl-4-aza-1-azoniabicyclo[2.2.2]octane chloride]
0.45% RH at 25° C.
  Desorption % Weight Change: 0.057%
  Sorption % Weight Change: 0.057%
9.2% RH at 25° C.
  Desorption % Weight Change: 0.997%
  Sorption % Weight Change: 0.9575%
20.05% RH at 25° C.
  Desorption % Weight Change: 2.1025%
  Sorption % Weight Change: 2.016%
29.75% RH at 25° C.
  Desorption % Weight Change: 3.599%
  Sorption % Weight Change: 3.4105%
39.4% RH at 25° C.
  Desorption % Weight Change: 4.743%
  Sorption % Weight Change: 4.282%
49.55% RH at 25° C.
  Desorption % Weight Change: 5.321%
  Sorption % Weight Change: 4.928%
59.4% RH at 25° C.
  Desorption % Weight Change: 5.726%
  Sorption % Weight Change: 5.356%
69.05% RH at 25° C.
  Desorption % Weight Change: 6.054%
  Sorption % Weight Change: 5.706%
78.8% RH at 25° C.
  Desorption % Weight Change: 6.357%
  Sorption % Weight Change: 6.109%
88.5% RH at 25° C.
  Desorption % Weight Change: 6.734%
  Sorption % Weight Change: 6.734%

## CCCCC1(CCCC)CS(=O)(=O)c2ccc(N(C)C)cc2[C@@H](c2ccc(OCc3ccc(C[N+]45CCN(CC4)CC5)cc3)cc2)[C@H]1O [Form II, (4R,5R)-1-((4-(4-(3,3-dibutyl-7-(dimethylamino)-2,3,4,5-tetrahydro-4-hydroxy-1,1-dioxido-1-benzithiepin-5-yl)phenoxy)methyl)phenyl)methyl-4-aza-1-azoniabicyclo[2.2.2]octane chloride]
1.3% RH at 25° C.
  Desorption % Weight Change: −0.02695%
  Sorption % Weight Change: −0.02695%
9.35% RH at 25° C.
  Desorption % Weight Change: 0.04235%
  Sorption % Weight Change: 0.04715%
20.25% RH at 25° C.
  Desorption % Weight Change: 0.09715%
  Sorption % Weight Change: 0.1058%
29.75% RH at 25° C.
  Desorption % Weight Change: 0.1444%
  Sorption % Weight Change: 0.1376%
39.55% RH at 25° C.
  Desorption % Weight Change: 0.1866%
  Sorption % Weight Change: 0.1809%
49.7% RH at 25° C.
  Desorption % Weight Change: 0.2636%
  Sorption % Weight Change: 0.2386%
59.5% RH at 25° C.
  Desorption % Weight Change: 0.331%
  Sorption % Weight Change: 0.304%
69.1% RH at 25° C.
  Desorption % Weight Change: 0.3983%
  Sorption % Weight Change: 0.3945%
78.65% RH at 25° C.
  Desorption % Weight Change: 0.4849%
  Sorption % Weight Change: 0.4695%
88.5% RH at 25° C.
  Desorption % Weight Change: 0.6446%
  Sorption % Weight Change: 0.6446%
Crystalline form, 80% RH air at 25° C.
  hygroscopicity: essentially non-hygroscopic
Dry sample (dried at essentially 0% RH, about 25° C., dry nitrogen purge)
  weight gain when equilibrated under 80% relative humidity (RH) air at 25° C.: less than 1 % of its own weight
